Assay results reported in US6630516B2, “Methods and compositions for preventing and treating chronological aging in human skin” (The Regents of the University of Michigan, priority 1997, dated 2003).
“Also recorded” adds a separate entry of the source.

What was measured:
[1] = system: sun-protected skin of subjects at least 80 years old; experiment: Histology and morphometry of elderly skin biopsied seven days after one topical treatment; assay type: in vivo, human
Description: To investigate the treatment of chronologically-aged skin, 17 subjects having an age of at least 80 years old were given one topical treatment with 1% retinol or with vehicle alone, the test area was occluded for seven days, and the test area was then biopsied. The vehicle was composed of a mixture of ethanol and polyethylene glycol in a 70:30 volumetric ratio. In comparing vehicle-treated skin with untreated skin from individuals of the same elderly age range, there were no statistically significant differences in any of the parameters described with reference to FIG. 2, namely the number of fibroblasts and keratinocytes, the epidermal thickness, and undesirable dermal connective tissue features. […] Due to the short duration of the retinoid (retinol) treatment, little change in the number of detrimental dermal connective tissue features (11B) was apparent.
Histology and morphometry. Replicate 4-mm punch biopsies were obtained from buttock skin of each individual. Formalin-fixed tissue pieces were sectioned, stained with hematoxylin and eosin, randomized and blinded. The sections were examined using an Olympus BX40 microscope in conjunction with a Sony DCX-151 high-resolution camera. Blocked areas 200 μm on a side were isolated using NIH Imager software and epidermal height was assessed at four sites (25 μm apart) in each of two such areas. The same two blocked areas were used for epithelial cell counts. The number of interstitial cell nuclei (i.e., nuclei below the dermo-epidermal juncture, not associated with capillaries) over the entire histological section was determined as a measure of dermal cellularity. The same blinded sections were scored for connective tissue fiber spacing, thickness, degree of disorganization and depth of disorganization, using a scale of 1-9 for each parameter.

keratinocytes = experiment: Ex vivo cell growth from biopsies after 7-day in vivo treatment (keratinocytes); parameters: species or system human; conditions: one application of 1% retinol in vivo, occluded seven days, biopsy cells cultured ex vivo; age over 80; p<0.05
Description: (§1) That is, an elderly volunteer was treated with retinol (one application of 1% retinol, occluded for seven days), the treated area was biopsied, and the keratinocytes and fibroblasts from the biopsy were cultured ex vivo. […] In particular, keratinocytes growth increased by about 30% (12A) while fibroblast growth increased by about 200% (12B), with p<0.05 for both. Accordingly, the topical application of a retinoid to aged skin would be expected to increase the number of keratinocytes and/or the number of fibroblasts in the skin.
(§2) Ex vivo cell growth. Biopsies were minced into small fragments (approximately 15 fragments per tissue piece) and the tissue fragments transferred to plastic cell culture flasks. Culture medium consisted of Dulbecco's Modified Minimal Essential Medium of Eagle with Earle's salts, non-essential amino acids and 10% fetal bovine serum. Tissue fragments were incubated at 37° C. and 5% CO2/95% air for up to one month. Each fragment was scored for whether keratinocytes and/or fibroblasts grew out of the tissue and from this, the percentage of fragments from which keratinocytes and fibroblasts were isolated was determined according to the method of Varani, J., et al., J Clin. Invest., 96, 1747-1756 (1994).

fibroblasts = experiment: Ex vivo cell growth from biopsies after 7-day in vivo treatment (fibroblasts); parameters: species or system human; conditions: one application of 1% retinol in vivo, occluded seven days, biopsy cells cultured ex vivo; age over 80; p<0.05
Description: as §1, §2

MMP-1 = experiment: Matrix metalloproteinase assay (collagenolytic activity) in biopsies of treated elderly skin; assay type: in vivo, human; conditions: seven days after a single retinol treatment, vs vehicle only, p<0.001
Description: (§3) We also used the biopsies from the aforementioned volunteers to determine the effect of the same retinoid treatment on the relative activity of the same collagenase enzymes studied for the results shown in FIG. 4. FIGS. 14A, 14B, and 14C depict the average MMP activity levels (for collagenase MMP-1 and gelatinases MMP-9 and MMP-2, respectively) after treatment of elderly individuals with retinol. […] (In FIGS. 14A-14C, the number of subjects for each figure was 10; “*” indicates […] versus the 18-29 year old values, “**” indicates p<0.1, and “***” indicates p<0.001.)
Matrix metalloproteinase assays. Tissue pieces were frozen in liquid nitrogen immediately after biopsy, homogenized in 20 mM Tris HCl (pH 7.6) plus 5 mM CaCl2, and centrifuged at 3000×g for 10 minutes to remove particulates. Ability to release soluble radioactive fragments from 3H-labeled fibrillar Type I collagen (described by Fisher, G. J., et al., Nature, 379, 335-339 (1996) and Hu, C-L, et al., Analytic. Biochem, 88, 638-643 (1978)) was used as a measure of collagenolytic activity. […] Subsequently, 0.2 μCi of collagen substrate (NEN-DuPont, Boston, Mass.) was incubated for 24 hours with 50 μl of tissue extract. […] Radioactivity remaining in the supernatant fluid was then measured and from this, the percentage of substrate hydrolzyed was determined.

MMP-9 = experiment: Gelatin zymography in biopsies of treated elderly skin (MMP-9); assay type: in vivo, human; conditions: seven days after a single retinol treatment, vs vehicle only, p<0.001
Description: as §3
(§4) Gelatin zymography (Varani et al., op. cit.) was used to assess MMP-2 (72-kD gelatinase; gelatinase A) and MMP9 (92-kD gelatinase; gelatinase B) activity. Tissue extracts were electrophoresed in an 8.5% SDS-polyacrylamide gel containing 1 mg/ml of gelatin. After electrophoresis, the SDS was removed by three sequential washes in 1% Triton X-100. The first two washes were for 20 minutes each and the last was overnight. Quantitation of hydrolysis zone width was done by laser densitometry.

MMP-2 = experiment: Gelatin zymography in biopsies of treated elderly skin (MMP-2); assay type: in vivo, human; conditions: seven days after a single retinol treatment, vs vehicle only
Description: as §3, §4

[2] = system: Type III procollagen α1(III) mRNA; experiment: In vivo induction of Type III procollagen mRNA in elderly skin; parameters: species or system human; conditions: 1% retinol cream applied once to sun-protected skin, covered with a patch seven days; seven 80+ year old individuals
Description: Seven 80+ year old individuals were treated clinically with 1% retinol cream, applied once to sun-protected skin, covered with a patch, and left undisturbed for seven days.
Northern analysis of RNA. Total RNA (e.g., for c-Jun, procollagen α1(III)) was isolated from skin samples by guanidinium hydrochloride lysis and ultracentrifugation (as described by G. J. Fisher et al., “Cellular, immunologic and biochemical characterization of topical retinoic acid-treated human skin,” J Investig. Dermatol, 96:699-707 (1991)). Northern analysis of total RNA (40 μg/lane) with randomly primed ^32P labelled cDNA probes for the particular mRNA to be determined were performed as described by G. J. Fisher et al. (in “All trains retinoic acid induces cellular retinol-binding protein in human skin in vivo,” J Investig. Dermatol, 105:80-86 (1995)). Type III procollagen mRNA was determined using […].

ERK = ERK activity assay in biopsies of treated elderly skin; assay type: in vivo, human; conditions: 1% retinol applied to sun-protected skin, occluded, examined seven days later; three 80+ year old volunteers; control normalized to one
Description: Using the same technique as previously described for retinoid treatment (1% retinol applied to sun-protected skin, occluded, and examined seven days later), we treated and then tested three of our 80+ year old volunteers to determine the effect of retinoid treatment on ERK activity. […] ERK phosphorylation and activity assays. ERK1 and ERK2 in skin supernatants were immunoprecipitated with antibodies from Santa Cruz Biotechnology Inc. and assayed for enzymatic activity using myelin basic protein as substrate, as described by J. D. Weber et al. (“Sustained activation of extracellular-signal regulated kinase I (ERK1) is required for the continued expression of cyclin D1 in G1 phase,” Biochem. J., 326:61-68 (1997)). Total and phosphorylated ERK1 and ERK2 in supernatants were determined by Western analysis, using antibodies from New England Biolabs Inc. (Beverly, Mass.)

c-Jun protein = experiment: Stained sectioned biopsies of elderly skin: c-Jun protein; assay type: in vivo, human; conditions: seven days after a single application of 1% retinol; 80+ volunteers; stained sections
Description: As noted above, AP-1 induces MMP formation and is formed by the heterodimerization of c-Jun and c-Fos proteins.

Type I procollagen = experiment: Stained sectioned biopsies of elderly skin: Type I procollagen; assay type: in vivo, human; conditions: seven days after a single application of 1% retinol; 80+ volunteers; stained sections; vs vehicle
Description: (§5) Additional sectioned and stained biopsies from our oldest (80+) group of volunteers after retinoid treatment are depicted in FIG. 18. As noted above, AP-1 induces MMP formation and is formed by the heterodimerization of c-Jun and c-Fos proteins. […] Thus, our invention appears to inhibit c-Jun formation and thereby inhibit the formation of AP-1 and the resulting MMPs. […] (The apparently lower density of procollagen in the dermis in FIG. 18C is an artifact of the section made; there is clearly a higher level of staining in the retinol treated section than in the vehicle treated section.)
(§6) In another aspect, this invention is directed to improving, or stimulating, the synthesis of Types I and III procollagen in an elderly person's skin. We have found there is a significant reduction in Types I and III procollagen synthesis in sun-protected skin of many (at least 50% of) aged individuals and that this condition can be treated by the topical application of a retinoid. Procollagen is a protein synthesized by skin fibroblast cells and then secreted into the extracellular medium, where it is converted by naturally occurring enzymes into collagen. Reduced procollagen synthesis in an elderly person's skin is manifest as a reduced presence of procollagen protein in both the upper dermis (extracellular) and in fibroblasts throughout the dermis, and can be determined (e.g.) by immunohistochemistry.

Type III procollagen = experiment: Stained sectioned biopsies of elderly skin: Type III procollagen; assay type: in vivo, human; conditions: seven days after a single application of 1% retinol; 80+ volunteers; stained sections; vs vehicle
Description: as §5, §6

procollagen protein = experiment: Procollagen protein levels in chronologically-aged skin after treatment; assay type: in vivo, human; conditions: single application of 1% retinol to chronologically-aged skin, covered with air-permeable adhesive bandage, examined seven days later
Description: as §6
It has been found unexpectedly that topical treatment of elderly, chronoaged skin with a retinoid results in a restitution of intracellular procollagen protein levels similar to those observed in young individuals (such as those aged 40 and younger). […] It would be more preferable for elderly persons to apply the retinoid once or twice daily to maintain a therapeutic regimen, although the agent could be applied on a less frequent but preferably regular basis (e.g., every other day, or once weekly). […]

[3] = 1% retinol, one topical application, occluded seven days, vs vehicle-treated skin, age 80+
[4] = one application of retinol, 7 days, sun-protected skin of an individual, vs vehicle-treated skin

CC1=C(/C=C/C(C)=C/C=C/C(C)=C/CO)C(C)(C)CCC1 [retinol]
mean increase in number of keratinocytes per section ([1]; 1% retinol, one topical application, occluded seven days, vs vehicle-treated skin of same individuals, age 80+, p<0.001): 273%
mean increase in number of fibroblasts per section ([1]; 1% retinol, one topical application, occluded seven days, vs vehicle-treated skin of same individuals, age 80+, p<0.05): 30%
epidermal thickness [1, 3]: increased the epidermal thickness substantially; also recorded: thickened
number of detrimental dermal connective tissue features [1, 3]: little change
appearance of dermal collagen [1, 4]: denser and more regular
interfacial surface area between epidermis and dermis (rete pegs and dermal papillae) [1, 4]: increased
increase in ex vivo keratinocytes growth (keratinocytes): about 30%
increase in ex vivo fibroblast growth (fibroblasts): about 200%
decrease in MMP-1 activity (MMP-1): 48%
decrease in MMP-9 activity (MMP-9): 39%
change in the activity of MMP-2 (MMP-2): no significant change
increase in Type III procollagen mRNA from control (vehicle-treated) areas [2]: about 2.5 times
ERK activity in vivo compared with vehicle-treated area (ERK): more than doubled
c-Jun level in elderly skin compared with vehicle-treated skin (c-Jun protein): decreased; also recorded: significantly reduced (almost absent)
level of Type I procollagen in skin (Type I procollagen): increased; also recorded: enhanced
level of Type III procollagen in skin (Type III procollagen): increased; also recorded: enhanced
procollagen protein levels (procollagen protein): comparable to those found in sun-protected skin of significantly younger individuals
